Assays:
ecDNA+ COLO320-DM cells = assay: PVT1 promoter-driven NanoLuc luciferase reporter in COLO320-DM; assay type: cell-based, human; conditions: JQ1 500 nM, 6 hours
From the text: (§1) We constructed a plasmid containing the 2 kb PVT1 promoter (chr8: 128,804,981-128,806,980, hg19) or the MYC promoter (chr8: 128,745,990-128,748,526, hg19) driving NanoLuc luciferase (PVT1p-nLuc) and a constitutive thymidine kinase (TK) promoter driving Firefly luciferase as an internal control (FIG. 3b). Briefly, pGL4-tk-luc2 (Promega) was digested with KpnI and PciI. A sequence containing multiple cloning sites ([…]), NanoLuc and BGH polyA sequence were inserted in tandem into the vector using Gibson assembly (NEBuilder DNA assembly mix). Next, the PVT1 promoter or the MYC promoter was inserted into the vector via NheI and SalI digestion to generate the final reporter construct. For the negative control, a minimal promoter ([…]) was used in place of the PVT1 promoter. For constructing plasmids with a cis-enhancer, an enhancer (chr8: 128347148-128348310, hg19; positive H3K27ac mark and looping to the PVT1 promoter in HiChIP, overlapping with BRD4 ChIP peak and ATAC-seq peak in COLO320-DM) was inserted directly 5′ to the promoter into the region with multiple cloning sites. […] Luciferase levels were quantified using Nano-Glo Dual reporter luciferase assay (Promega). The reporter level was calculated as the ratio of NanoLuc reading over firefly reading using Tecan M1000. Mean and standard errors were calculated based on three biological replicates with three technical replicate each.

COLO320-HSR cells = assay: PVT1 promoter-driven NanoLuc luciferase reporter in COLO320-HSR; assay type: cell-based, human; conditions: JQ1 500 nM, 6 hours
From the text: as §1

Cc1sc2c(c1C)C(c1ccc(Cl)cc1)=N[C@@H](CC(=O)OC(C)(C)C)c1nnc(C)n1-2 [JQ1]
repression of PVT1p-mediated transcription (ecDNA+ COLO320-DM cells): ~5 fold
repression of PVT1p-mediated transcription (COLO320-HSR cells): ~2 fold

Source: patent publication US20250304952A1, “DNA ELEMENT RESPONSIVE TO EXTRACHROMOSOMAL DNA IN CANCER CELLS” (The Board of Trustees of the Leland Stanford Junior …, priority 2021, published 2025)
